Where a name gives a salt, the structure may show the parent alone.
How the values were obtained:
[1] = Oral antihypertensive activity: blood pressure and heart rate (Table 9); assay type: in vivo; settings: oral dose 1 mg/kg
Excerpt: Compounds of formula I, and their pharmaceutically acceptable salts are orally active as antihypertensive agents.

rumen fluid = settings: 50 ppm; control 100
Eimeria tenella = assay: Anti-coccidial effect of monensin urethanes added to the feed of infected chickens (Table 7); assay type: in vivo; settings: 75 ppm in feed; infected untreated control 3.0; less than 2.5 significant
Method: This test utilizes ten chickens per drug group. Ten chickens are employed as a weight control and ten chickens as an infected control. The drug is given 48 hours in advance of the infection. One gm. of the test drug is mixed in a mechanical mixer with a sufficient amount of chicken feed to result in the desired dosage. The infection consists of approximately 200,000 oocysts given orally by pipette. The tests lasts for eleven days and then the surviving birds are autopsied and examined for gross lesions in the ceca. The test birds are rated according to the number of survivors and the number of cecal lesions. The results are expressed as average degree of infection (A.D.I.). An average degree of infection of less than 2.5 is considered to be significant.

Sarcina lutca 9341 = assay: Minimum Inhibitory Concentration, agarwell diffusion assay (Table 6); assay type: cell-based; settings: Sarcina, 9341, read-out: Minimum Inhibitory Concentration, Sarcina lutca 9341
Excerpt: (§1) (a) Lowest twofold dilution giving zone of inhibition in the agarwell
(§2) (b) NRRL collection number, all the rest ate ATCC numbers.

Staph. aureus 6538 = assay: as above; assay type: cell-based; settings: Staphylococcus aureus, 6538, read-out: Minimum Inhibitory Concentration, Staph. aureus 6538
Excerpt: as §1, §2

Bacillus megaterium 8CU = assay: as above; assay type: cell-based; settings: Priestia megaterium, 8CU, read-out: Minimum Inhibitory Concentration, Bacillus megaterium 8CU
Excerpt: as §1, §2

[2] = tested on: Streptococcus faecium 8043; assay: as above; assay type: cell-based; settings: Enterococcus faecium, 8043, Streptococcus faecium 8043, read-out: Minimum Inhibitory Concentration
Excerpt: as §1, §2

[3] = tested on: Paceilomyces variotl 25820; assay: as above; assay type: cell-based; settings: read-out: Minimum Inhibitory Concentration, Paceilomyces variotl 25820
Excerpt: as §1, §2

Bacillus subtilis 583 = assay: as above; assay type: cell-based; settings: Bacillus subtilis, 583, Bacillus subtilis 583 (NRRL), read-out: Minimum Inhibitory Concentration
Excerpt: as §1, §2

Bacillus sp. TA 27860 = assay: as above; assay type: cell-based; settings: Bacillus, SP.TA27860, Bacillus sp. TA 27860, read-out: Minimum Inhibitory Concentration
Excerpt: as §1, §2

[4] = tested on: Streptococcus cellulosac 3313; assay: as above; assay type: cell-based; settings: Streptococcus, 3313, read-out: Minimum Inhibitory Concentration, Streptococcus cellulosac 3313
Excerpt: as §1, §2

Bacillus sp. E 27859 = assay: as above; assay type: cell-based; settings: Bacillus, SP.E27859, Bacillus sp. E 27859, read-out: Minimum Inhibitory Concentration
Excerpt: as §1, §2

MycoBacterium phiel 355 = assay: as above; assay type: cell-based; settings: Mycobacterium, 355, read-out: Minimum Inhibitory Concentration, MycoBacterium phiel 355
Excerpt: as §1, §2

Plasmodium berghei = assay: Oral antimalarial activity against Plasmodium berghei in mice; assay type: in vivo; settings: p.o.
Excerpt: Compounds of formula I wherein R4 is aryl, haloaryl or nitroaryl and their pharmaceutically acceptable salts are orally active as antimalarial agents.

Treponema hyodysenteriae = assay: Activity against Treponema hyodysenteriae (MIC, blood agar plates); assay type: cell-based; settings: Brachyspira hyodysenteriae, 48 h, 42° C., anaerobic
Excerpt: Testing for activity against Treponema hyodysenteriae, a cause of swine dysentery consisted of inoculation of blood agar plates containing a series of two or fourfold dilutions of the monensin urethane derivatives with tenfold dilutions of the T. hyodysenteriae strain.

## CCC1(C2OC(C3OC(O)(COC(=O)Nc4ccc(Br)cc4)C(C)CC3C)CC2C)CCC(C2(C)CCC3(CC(O)C(C)C(C(C)C(OC)C(C)C(=O)O)O3)O2)O1 (stereo not shown) [Monensin A, 4-bromophenylurethane, 4-bromophenylaminocarbonyloxy-(0-11)-monensin, sodium salt]
[1]
  Day of Maximum Change, Blood Pressure: 2 days
  Maximum Change (%), Blood Pressure: 21%
[1]; at time of maximum effect
  Mean Blood Pressure at time of maximum effect: 178 mm Hg
[1]; before treatment
  Mean Blood Pressure before treatment: 225 mm Hg
Rumen fluid
  Rate of Gas Production, Percent Production of Control Fermentations: 103.0%
  Total VFA, Percent Production of Control Fermentations: 89.9%
Eimeria tenella
  Average Degree of Infected (A.D.I.): 0.7
Sarcina lutca 9341
  MIC: 0.2 µg/mL
Staph. aureus 6538
  MIC: 0.8 µg/mL
Bacillus megaterium 8CU
  MIC: 0.1 µg/mL
[2]
  MIC: 0.1 µg/mL
[3]
  MIC: 1.6 µg/mL
Bacillus subtilis 583
  MIC: 0.4 µg/mL
Bacillus sp. TA 27860
  MIC: 0.2 µg/mL
[4]
  MIC: 0.8 µg/mL
Bacillus sp. E 27859
  MIC: 0.05 µg/mL
MycoBacterium phiel 355
  MIC: 1.6 µg/mL
Plasmodium berghei
  ED50: 15 to 20 mg/kg
Treponema hyodysenteriae
  MIC: 0.4 µg/mL

From patent US4263427A, “Monensin urethane derivatives” (priority 1979, dated 1981)
